Experimental data as given in patent publication USRE48461E1, “Modulation of androgen receptor expression” (Ionis Pharmaceuticals, Inc., priority 2012, dated 2021).
Several values for one entry are separate records, joined by “and”; a condition that tells them apart may be missing. Equal entries are not always repeated. Oligonucleotides are written 5' to 3', each unit as a sugar letter and its base; * is a phosphorothioate linkage, no mark a phosphodiester; rarer units and linkages stand in square brackets, end groups in braces. Plain capitals give the bases only. k = constrained ethyl (cEt); [5mC] = 5-methylcytosine; d = 2'-deoxy (DNA)

Columns and labels:
AR mRNA [1] = assay: Antisense inhibition of human AR in HuVEC cells, single concentration (electroporation, qRT-PCR RTS3559); format: cell-based; details: electroporation, approximately 24 hours, relative to untreated control
Procedure, shortened: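 HuVEC cells electroporated with antisense oligonucleotides at a single concentration. AR mRNA quantified by qRT-PCR using human primer-probe set RTS3559 and normalised to total RNA content by RIBOGREEN.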

AR mRNA [2] = assay: Dose-dependent antisense inhibition of human AR in HuVEC cells (electroporation, qRT-PCR RTS3559, IC50); format: cell-based; details: HuVEC, electroporation, approximately 16 hours
Procedure, shortened: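 HuVEC cells dosed with antisense oligonucleotides by electroporation and treated approximately 16 hours. AR mRNA quantified by real-time qPCR with primer probe set RTS3559 and normalised to total RNA by RIBOGREEN; IC50 from dose-response.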

[3] = Table 20, 500 nM oligonucleotide
[4] = Table 21, 500 nM oligonucleotide
[5] = Table 22, 500 nM oligonucleotide

Substance	% inhibition (AR mRNA [1]; [3]) [%]	percent inhibition of AR, 3000.0 nM (AR mRNA [2]; Table 32) [%]	percent inhibition of AR, 46.9 nM (AR mRNA [2]; Table 33) [%]	percent inhibition of AR, 187.5 nM (AR mRNA [2]; Table 33) [%]	percent inhibition of AR, 750.0 nM (AR mRNA [2]; Table 33) [%]	percent inhibition of AR, 3000.0 nM (AR mRNA [2]; Table 33) [%]	IC50 (AR mRNA [2]; Table 33) [nM]	other results
583850 (kG*kG*kA*d[5mC]*dG*d[5mC]*dA*d[5mC]*dA*dG*d[5mC]*dG*dG*kG*kT*kG; antisense) [compound 583850]	38	78	–	–	–	–	–	percent inhibition of AR, 46.9 nM (AR mRNA [2]; Table 32): 9%; percent inhibition of AR, 187.5 nM (AR mRNA [2]; Table 32): 21%; percent inhibition of AR, 750.0 nM (AR mRNA [2]; Table 32): 54%; IC50 (AR mRNA [2]; Table 32): 600 nM
583851 (kG*kT*kG*dG*dG*dA*d[5mC]*dG*d[5mC]*dA*d[5mC]*dA*dG*k[5mC]*kG*kG; antisense) [compound 583851]	33	–	8	24	54	76	610	–
583853 (kT*kG*k[5mC]*dA*dT*dT*d[5mC]*dG*dG*d[5mC]*d[5mC]*dA*dA*kT*kG*kG; antisense) [compound 583853]	33	–	24	51	70	80	210	–
583855 (k[5mC]*k[5mC]*kT*dT*dT*dG*d[5mC]*dA*dT*dT*d[5mC]*dG*dG*k[5mC]*k[5mC]*kA; antisense) [compound 583855]	44	91	–	–	–	–	–	percent inhibition of AR, 46.9 nM (AR mRNA [2]; Table 32): 22%; percent inhibition of AR, 187.5 nM (AR mRNA [2]; Table 32): 50%; percent inhibition of AR, 750.0 nM (AR mRNA [2]; Table 32): 81%; IC50 (AR mRNA [2]; Table 32): 180 nM
583856 (kA*kA*k[5mC]*d[5mC]*dT*dT*dT*dG*d[5mC]*dA*dT*dT*d[5mC]*kG*kG*k[5mC]; antisense) [compound 583856]	45	89	–	–	–	–	–	percent inhibition of AR, 46.9 nM (AR mRNA [2]; Table 32): 31%; percent inhibition of AR, 187.5 nM (AR mRNA [2]; Table 32): 55%; percent inhibition of AR, 750.0 nM (AR mRNA [2]; Table 32): 74%; IC50 (AR mRNA [2]; Table 32): 140 nM
583862 (kG*k[5mC]*kT*d[5mC]*dT*dT*dG*d[5mC]*d[5mC]*dT*dG*d[5mC]*dG*k[5mC]*kT*kG; antisense) [compound 583862]	32	–	15	37	64	79	410	–
583864 (k[5mC]*kA*kG*dT*dG*d[5mC]*dT*d[5mC]*dT*dT*dG*d[5mC]*d[5mC]*kT*kG*k[5mC]; antisense) [compound 583864]	46	85	–	–	–	–	–	percent inhibition of AR, 187.5 nM (AR mRNA [2]; Table 32, 0.1875 µM): 49% and 47%; percent inhibition of AR, 750.0 nM (AR mRNA [2]; Table 32, 0.75 µM): 72% and 62%
583865 (kT*kT*k[5mC]*dA*dG*dT*dG*d[5mC]*dT*d[5mC]*dT*dT*dG*k[5mC]*k[5mC]*kT; antisense) [compound 583865]	45	85	–	–	–	–	–	percent inhibition of AR, 46.9 nM (AR mRNA [2]; Table 32): 33%; percent inhibition of AR, 187.5 nM (AR mRNA [2]; Table 32): 42%; percent inhibition of AR, 750.0 nM (AR mRNA [2]; Table 32): 68%; IC50 (AR mRNA [2]; Table 32): 190 nM
583866 (kT*k[5mC]*kT*dT*d[5mC]*dA*dG*dT*dG*d[5mC]*dT*d[5mC]*dT*kT*kG*k[5mC]; antisense) [compound 583866]	32	–	17	48	71	91	240	–
583868 (kA*k[5mC]*kT*d[5mC]*dA*dG*d[5mC]*dA*dG*dT*dA*dT*d[5mC]*kT*kT*k[5mC]; antisense) [compound 583868]	34	–	19	31	59	81	410	–
583871 (kA*kT*kA*d[5mC]*dT*d[5mC]*dA*dG*d[5mC]*dA*dG*dT*dA*kT*k[5mC]*kT; antisense) [compound 583871]	47	87	–	–	–	–	–	percent inhibition of AR, 46.9 nM (AR mRNA [2]; Table 32): 28%; percent inhibition of AR, 187.5 nM (AR mRNA [2]; Table 32): 30%; percent inhibition of AR, 750.0 nM (AR mRNA [2]; Table 32): 68%; IC50 (AR mRNA [2]; Table 32): 280 nM
583880 (kT*kT*kT*dG*dG*dT*dG*dT*dA*dA*d[5mC]*d[5mC]*dT*k[5mC]*k[5mC]*k[5mC]; antisense) [compound 583880]	39	92	–	–	–	–	–	percent inhibition of AR, 46.9 nM (AR mRNA [2]; Table 32): 13%; percent inhibition of AR, 187.5 nM (AR mRNA [2]; Table 32): 52%; percent inhibition of AR, 750.0 nM (AR mRNA [2]; Table 32): 78%; IC50 (AR mRNA [2]; Table 32): 220 nM
583881 (k[5mC]*k[5mC]*kT*dT*dT*dG*dG*dT*dG*dT*dA*dA*d[5mC]*k[5mC]*kT*k[5mC]; antisense) [compound 583881]	47	91	–	–	–	–	–	percent inhibition of AR, 46.9 nM (AR mRNA [2]; Table 32): 28%; percent inhibition of AR, 187.5 nM (AR mRNA [2]; Table 32): 50%; percent inhibition of AR, 750.0 nM (AR mRNA [2]; Table 32): 85%; IC50 (AR mRNA [2]; Table 32): 150 nM
583892 (k[5mC]*kA*kG*d[5mC]*d[5mC]*dT*dA*dG*dG*d[5mC]*dT*d[5mC]*dT*k[5mC]*kG*k[5mC]; antisense) [compound 583892]	35	–	22	38	68	83	270	–
583893 (kA*kG*k[5mC]*dA*dG*d[5mC]*d[5mC]*dT*dA*dG*dG*d[5mC]*dT*k[5mC]*kT*k[5mC]; antisense) [compound 583893]	34	–	15	35	62	79	420	–
583917 (kT*k[5mC]*kG*d[5mC]*dG*dA*d[5mC]*dT*d[5mC]*dT*dG*dG*dT*kA*k[5mC]*kG; antisense) [compound 583917]	–	–	–	–	–	–	–	% inhibition (AR mRNA [1]; [4]): 37%; percent inhibition of AR, 46.9 nM (AR mRNA [2]; Table 34): 6%; percent inhibition of AR, 187.5 nM (AR mRNA [2]; Table 34): 30%; percent inhibition of AR, 750.0 nM (AR mRNA [2]; Table 34): 50%; percent inhibition of AR, 3000.0 nM (AR mRNA [2]; Table 34): 70%; IC50 (AR mRNA [2]; Table 34): 640 nM
583919 (kG*kT*kA*dG*dT*d[5mC]*dG*d[5mC]*dG*dA*d[5mC]*dT*d[5mC]*kT*kG*kG; antisense) [compound 583919]	–	–	27	60	85	91	140	% inhibition (AR mRNA [1]; [4]): 55%
583920 (kT*kA*kG*dT*dA*dG*dT*d[5mC]*dG*d[5mC]*dG*dA*d[5mC]*kT*k[5mC]*kT; antisense) [compound 583920]	–	–	11	16	50	72	760	% inhibition (AR mRNA [1]; [4]): 42%
583922 (kA*kG*kT*dT*dG*dT*dA*dG*dT*dA*dG*dT*d[5mC]*kG*k[5mC]*kG; antisense) [compound 583922]	–	–	–	–	–	–	–	% inhibition (AR mRNA [1]; [4]): 37%; percent inhibition of AR, 46.9 nM (AR mRNA [2]; Table 34): 16%; percent inhibition of AR, 187.5 nM (AR mRNA [2]; Table 34): 43%; percent inhibition of AR, 750.0 nM (AR mRNA [2]; Table 34): 76%; percent inhibition of AR, 3000.0 nM (AR mRNA [2]; Table 34): 92%; IC50 (AR mRNA [2]; Table 34): 230 nM
583932 (kT*k[5mC]*kT*d[5mC]*d[5mC]*dA*dG*d[5mC]*dT*dT*dG*dA*dT*kG*k[5mC]*kG; antisense) [compound 583932]	–	–	–	–	–	–	–	% inhibition (AR mRNA [1]; [4]): 39%; percent inhibition of AR, 46.9 nM (AR mRNA [2]; Table 34): 9%; percent inhibition of AR, 187.5 nM (AR mRNA [2]; Table 34): 35%; percent inhibition of AR, 750.0 nM (AR mRNA [2]; Table 34): 64%; percent inhibition of AR, 3000.0 nM (AR mRNA [2]; Table 34): 81%; IC50 (AR mRNA [2]; Table 34): 380 nM
583933 (k[5mC]*kA*kG*d[5mC]*dG*dG*dG*dT*dT*d[5mC]*dT*d[5mC]*d[5mC]*kA*kG*k[5mC]; antisense) [compound 583933]	–	–	–	–	–	–	–	% inhibition (AR mRNA [1]; [4]): 38%; percent inhibition of AR, 46.9 nM (AR mRNA [2]; Table 34): 22%; percent inhibition of AR, 187.5 nM (AR mRNA [2]; Table 34): 25%; percent inhibition of AR, 750.0 nM (AR mRNA [2]; Table 34): 56%; percent inhibition of AR, 3000.0 nM (AR mRNA [2]; Table 34): 81%; IC50 (AR mRNA [2]; Table 34): 410 nM
583969 (k[5mC]*k[5mC]*kT*dT*d[5mC]*dT*dT*d[5mC]*dG*dG*d[5mC]*dT*dG*kT*kG*kA; antisense) [compound 583969]	–	–	12	26	66	86	440	% inhibition (AR mRNA [1]; [4]): 44%
583990 (kA*k[5mC]*kA*d[5mC]*dA*dT*d[5mC]*dA*dG*dG*dT*dG*d[5mC]*kG*kG*kT; antisense) [compound 583990]	–	–	–	–	–	–	–	% inhibition (AR mRNA [1]; [5]): 30%; percent inhibition of AR, 46.9 nM (AR mRNA [2]; Table 34): 0%; percent inhibition of AR, 187.5 nM (AR mRNA [2]; Table 34): 9%; percent inhibition of AR, 750.0 nM (AR mRNA [2]; Table 34): 33%; percent inhibition of AR, 3000.0 nM (AR mRNA [2]; Table 34): 56%; IC50 (AR mRNA [2]; Table 34): 1920 nM
583996 (k[5mC]*kG*k[5mC]*d[5mC]*dA*dG*dG*dG*dT*dA*d[5mC]*d[5mC]*dA*k[5mC]*kA*k[5mC]; antisense) [compound 583996]	–	–	–	–	–	–	–	% inhibition (AR mRNA [1]; [5]): 33%; percent inhibition of AR, 46.9 nM (AR mRNA [2]; Table 34): 26%; percent inhibition of AR, 187.5 nM (AR mRNA [2]; Table 34): 12%; percent inhibition of AR, 750.0 nM (AR mRNA [2]; Table 34): 50%; percent inhibition of AR, 3000.0 nM (AR mRNA [2]; Table 34): 70%; IC50 (AR mRNA [2]; Table 34): 710 nM
